In patent US5585492A, “LTA4 Hydrolase inhibitors” (priority 1994, dated 1996):
Where a name gives a salt, the structure may show the parent alone. Read-outs that look alike come from different tables or passages of the source.

Assays:
[1] = target: T1, recombinant human LTA4 hydrolase (Homo sapiens, UniProt P09960); assay: Recombinant Human LTA4 Hydrolase Assay for LTA4 Hydrolase Inhibitor Activity (LTB4 by enzyme-linked immunoassay); assay type: biochemical; details: for IC50: read-out: Recombinant Human LTA4 Hydrolase Assay IC50 LTA4H
T1 construct: made in house; host or cells: Spodoptera frugiperda Sf-9 cells, baculovirus (AcNPV) expression vector
T1 sequence (P09960 1-611): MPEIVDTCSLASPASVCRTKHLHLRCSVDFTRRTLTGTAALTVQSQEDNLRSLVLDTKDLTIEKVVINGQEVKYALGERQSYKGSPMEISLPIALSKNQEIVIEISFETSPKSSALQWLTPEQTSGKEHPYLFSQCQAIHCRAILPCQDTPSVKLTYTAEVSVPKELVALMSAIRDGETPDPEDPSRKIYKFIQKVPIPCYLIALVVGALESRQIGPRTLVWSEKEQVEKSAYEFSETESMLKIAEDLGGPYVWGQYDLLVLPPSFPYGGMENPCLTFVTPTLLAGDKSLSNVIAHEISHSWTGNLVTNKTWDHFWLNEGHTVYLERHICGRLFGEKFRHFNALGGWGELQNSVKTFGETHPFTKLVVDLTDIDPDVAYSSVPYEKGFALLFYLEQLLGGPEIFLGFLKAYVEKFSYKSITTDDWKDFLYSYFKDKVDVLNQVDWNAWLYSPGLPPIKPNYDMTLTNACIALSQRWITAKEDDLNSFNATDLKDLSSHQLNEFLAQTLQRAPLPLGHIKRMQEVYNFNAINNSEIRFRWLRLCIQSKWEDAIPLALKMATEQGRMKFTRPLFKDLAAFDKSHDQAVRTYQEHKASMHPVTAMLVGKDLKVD
Description: Compounds of the present invention were tested for LTA4 hydrolase inhibitor activity against recombinant human LTA4 hydrolase (rhLTA4 H). […] Briefly, LTA4 hydrolase encoding DNA was amplified by polymerase chain reaction using a pair of oligonucleotide primers based on the nucleotide sequence from the 5'-end, and the complement of the 3'-end, of the coding region of the LTA4 hydrolase gene, the nucleotide sequence of which gene is known. […] A λgtll human placental cDNA library (Clonetech, Palo Alto, Calif.) provided the nucleic acid template.
One or more predetermined amounts of a compound of the invention were incubated in assay buffer (0.1M potassium phosphate, 5 mg/ml fatty acid free BSA, 10% DMSO, pH 7.4) for 10 minutes at room temperature with 250 ng of recombinant hLT4 H to allow binding, if any, between the enzyme and inhibitor. The stock enzyme solution was 1 mg/ml LTA4 hydrolase, 50 mM Tris, pH 8.0, 150 mM NaCl, 2.5 mM beta-mercaptoethanol, 50% glycerol. […] LTA4 (i.e., substrate) was prepared from the methyl ester of LTA4 (Biomol, Inc., Plymouth Meeting, Pa.) by treating the methyl ester with 30 molar equivalents of LiOH at room temperature for 18 hours. The LTA4 substrate in its free acid form was kept frozen at -80° C. until needed. […] Each reaction was carried out at room temperature for 10 minutes. The reaction was stopped by diluting 25 μl of the reaction mixture with 500 μl of the assay buffer without DMSO. LTB4 was quantified in the diluted sample by a commercially available enzyme-linked immunoassay [Caymen Chemical Co., Ann Arbor, Mich.] using the method recommended in the manufacturer's instructions and compared to the amount of LTB4 produced in a negative control (i.e., essentially identical conditions except without addition of an inhibitor compound). The IC50 was routinely calculated from the data produced.

[2] = tested on: LTB4 production in human blood; assay: Inhibition of Calcium Ionophore-Induced LTB4 Production in Human Blood (HWB); assay type: cell-based; details: Homo sapiens, read-out: Inhibition of Calcium Ionophore-Induced LTB4 Production in Human Blood IC50 HWB
Description: One or more concentrations of the leukotriene A4 hydrolass inhibitor compounds being tested were prepared (diluted in DMSO) and 2 μl added and gently mixed with the diluted whole blood. After incubating for 15 minutes at 37° C. in a humidified incubator, calcium ionophore A23187 (Sigma Chemical Co., St. Louis, Mo.) was added to a final concentration of 20 mcg/ml and the incubation continued under the same conditions for an additional 10 minutes to allow LTB4 formation. The reaction was terminated by centrifugation (833 g, 10 minutes at 4° C.) and supernatant were analyzed for LTB4 and thromboxane by commercially available enzyme-linked immunoassays (Caymen Chemical Co., Ann Arbor, Mich.) according to the manufacturer's instructions. The IC50 of each test compound was determined from the amount of inhibition of LTB4 production as compared to an essentially identical assay in which no inhibitor compound was present.

[3] = tested on: LTB4 production in mouse blood; assay: Murine Ex Vivo LTB4 Inhibition, calcium ionophore stimulated mouse blood after oral gavage; assay type: in vivo; details: oral gavage, 10 mg/kg, 1 hour
Description: Leukotriene A4 hydrolass inhibitor compounds of the present invention were diluted to a predetermined concentration in phosphate buffered saline containing 2% DMSO and 1% Tween 80. The compounds were administered by oral gavage to adult male outbred mice weighing approximately 20-30 gm at a dose of 10 mg/kg body weight. (Compounds given at a dose of 50 mg/kg body weight are designtated in following Table by the symbol, *.) Sixty (60) minutes after administration of an LTA4 inhibitor compound of the invention, blood was collected (into heparin-containing tubes) from the retroorbital sinus. […] The mixture was incubated for 10 minutes at 37° C. in a humidified incubator. The reaction was terminated by centrifugation (833 g, 10 minutes at 4° C.). Supernatants were analyzed for LTB4 and thromboxane by commercially available enzyme-linked immunoassays [Caymen Chemical Co., Ann Arbor, Mich.] in accordance with the manufacturer's instructions. The percent inhibition was determined by comparison to animals treated identically except that the solution admininstered by oral gavage was devoid of inhibitor compound.

[4] = human whole blood, A23187 20 mcg/ml

IC50 [1] [µM] | IC50 [2, 4] [µM] | Structure (SMILES) | also measured
1.32 | 4.58 | Nc1ccc2ncn(CCOc3ccc(Cc4ccccc4)cc3)c2c1 [Example 362B] | –
0.05 | 0.18 | CC(=O)NC1CCN(CCOc2ccc(Cc3ccccc3)cc2)CC1 [Example 238] | –
0.016 | 0.36 | NC(=O)C1CCN(CCOc2ccc(Cc3ccccc3)cc2)C1 (stereo not drawn) [Example 425] | –
0.018 | 0.049 | O=C(O)CCNCCCCOc1ccc(Cc2ccccc2)cc1 [Example 433] | –
0.016 | 0.095 | COC(=O)CCN(C)CCCOc1ccc(Cc2cccs2)cc1 [Example 331] | –
0.21 | 0.403 | NC(=O)CC1CCN(CCOc2ccc(Cc3ccccc3)cc2)C1 (stereo not drawn) [Example 426] | –
0.081 | 0.35 | NC(=O)NC1CCN(CCOc2ccc(Cc3ccccc3)cc2)C1 (stereo not drawn) [Example 453] | –
– | – | Cc1nc(COc2ccc(OCCN3CCCC3)cc2)cs1 [Example 202] | inhibition at 3 µM [1]: 44%
0.06 | 0.19 | Fc1cc(Cc2ccccc2)ccc1OCCN1CCCC1 [Example 115] | –
– | – | O=C(CNCCOc1ccc(Cc2ccccc2)cc1)OCc1ccccc1 [Example 319] | inhibition at 100 µM [1]: 47%
0.06 | 0.38 | COC[C@@H]1CCCN1CCOc1ccc(Cc2ccccc2)cc1 [Example 400] | –
11 | 7.98 | CCOC(=O)CC(NCCOc1ccc(Cc2ccccc2)cc1)c1cccnc1 (stereo not drawn) [Example 271] | –
– | – | Clc1cccc(Cl)c1COc1ccc(OCCN2CCCC2)cc1 [Example 204] | inhibition at 25 µM [1]: 49%
0.14 | 0.28 | O=C(O)CCNCCCOc1ccc(Cc2ccccc2)cc1 [Example 431] | –
– | – | NC(=O)C1CCN(CCCOc2ccc(Cc3ccccc3)cc2)CC1 [Example 226, 1-[3-[4-(phenylmethyl)phenoxy]propyl]-4-piperidinecarboxamide] | inhibition at 100 µM [1]: 4%
– | – | CC1(CN2CCC(C(N)=O)CC2)Cc2cc(Cc3ccccc3)ccc2O1 (stereo not drawn) [Example 286] | inhibition at 100 µM [1]: 41%
0.07 | 0.89 | COc1ccc(Cc2ccc(OCCN3CCCC3)cc2)cc1 [Example 128] | –
4.9 | 1.77 | NC(=O)C1CCCN(CCCOc2ccc(Oc3ccccc3)cc2)C1 (stereo not drawn) [Example 250] | –
0.087 | 0.44 | NC(=O)NC1CCN(CCOc2ccc(Cc3ccccc3)cc2)CC1 [Example 456] | –
– | – | C#CC(CC(=O)OCC)NCCOc1ccc(Cc2ccccc2)cc1 (stereo not drawn) [Example 408] | inhibition at 100 µM [1]: 76%
– | – | O=C(OCc1ccccc1)[C@@H]1CCCN1CCCOc1ccc(Cc2ccccc2)cc1 [Example 228, Phenylmethyl 1-[3-[4-(phenylmethyl)phenoxy]propyl]-L-prolinate] | inhibition at 3 µM [1]: 28%
– | – | c1ccc(Cc2ccc3c(c2)CC(Cn2nnc4cccnc42)O3)cc1 (stereo not drawn) [Example 360A] | inhibition at 100 µM [1]: 36%

IC50 [1] [µM] | IC50 [2, 4] [µM] | Structure (SMILES) | also measured
– | – | c1ccc(Cc2ccc(OCCn3cnc4ncncc43)cc2)cc1 [Example 357A] | Murine Ex Vivo LTB4 Inhibition % I LTB4 at 1 hour after administration of 10 mg/kg [3]: 57%
– | – | CCOC(=O)C1CCN(CCOc2ccc(Cc3ccc(F)cc3)cc2)CC1 [Example 312] | inhibition at 100 µM [1]: 46%
0.63 | – | c1cc(Cc2ccc(OCCN3CCCC3)cc2)ccn1 [Example 126] | –
– | 7.98 | CC(C)(C)OC(=O)CCNCCCOc1ccc(Cc2ccccc2)cc1 [Example 268] | inhibition at 3 µM [1]: 53%
0.037 | 0.12 | O=C(COc1ccc(Cc2ccccc2)cc1)N1CCCCC1 [Example 387, 1-(1-piperidinyl)-2-[4-(phenylmethyl)phenoxy]ethanone] | –
– | – | c1ccc(Oc2ccc(OCCCn3cnc4ccccc43)cc2)cc1 [Example 343] | inhibition at 3 µM [1]: 40%
0.02 | 0.29 | NC1CCN(CCOc2ccc(Cc3ccccc3)cc2)C1 (stereo not drawn) [Example 452] | –
– | – | c1ccc(Cc2ccc3c(c2)CC(Cn2nc4cccnc4n2)O3)cc1 (stereo not drawn) [Example 360B] | inhibition at 100 µM [1]: 19%
– | – | O=C(O)c1ccc(-c2ccc(OCCN3CCCC3)cc2)cc1 [Example 63] | inhibition at 25 µM [1]: 40%
0.13 | 1.73 | CC1(CN2CCCC2)Cc2cc(Cc3ccccc3)ccc2O1 (stereo not drawn) [Example 285] | –
0.06 | 1.01 | Clc1ccc(Cc2ccc(OCCN3CCCC3)cc2)cc1 [Example 140] | –
0.19 | 0.24 | CCOC(=O)CCN(C)CCCOc1ccc(Cc2ccccc2)cc1 [Example 412] | –
0.22 | 0.586 | COC(=O)CCNCCOc1ccc(Cc2ccccc2)cc1 [Example 324] | –
0.21 | 0.42 | CC(=O)NC1CCN(CCOc2ccc(Cc3ccccc3)cc2)C1 (stereo not drawn) [Example 227] | –
4.1 | 0.232 | COC(=O)C1CCN(CCOc2ccc(Cc3ccccc3)cc2)C1 (stereo not drawn) [Example 276] | –
– | 9.15 | c1ccc(Cc2ccc(OCCn3cnc4cccnc43)cc2)cc1 [Example 338C] | inhibition at 3 µM [1]: 34%
– | – | c1ccc(Cc2ccc3c(c2)CC(Cn2nc4ccncc4n2)O3)cc1 (stereo not drawn) [Example 361A] | inhibition at 100 µM [1]: 24%
– | – | c1ccc(COc2ccc(OCCn3cnc4ccccc43)cc2)cc1 [Example 345] | inhibition at 3 µM [1]: 35%
0.84 | 2.48 | COc1cccc(Cc2ccc(OCCN3CCCC3)cc2)c1 [Example 127] | –
– | – | c1ccc(COc2ccc(OCCn3cnc4cccnc43)cc2)cc1 [Example 346A] | inhibition at 3 µM [1]: 31%
0.077 | – | c1cc(Cc2ccc(OCCN3CCCC3)cc2)co1 [Example 136] | –
3 | 1.1 | CCOC(=O)CNCCCOc1ccc(Cc2ccccc2)cc1 [Example 264] | –

Structure (SMILES) | IC50 [1] [µM] | IC50 [2, 4] [µM] | also measured
Clc1cc(Cc2ccccc2)ccc1OCCN1CCCC1 [Example 113] | 1.23 | 2.01 | –
O=C1CC2CCCC(C1)N2CCOc1ccc(Cc2ccccc2)cc1 [Example 303] | 0.097 | – | IC50 [2]: 1.65 µM
COC(=O)[C@@H]1CCCN1CCOc1ccc(Cc2ccccc2)cc1 [Example 225, Methyl 1-[2-[4-(phenylmethyl)phenoxy]ethyl]-2S-pyrrolidine-2-carboxylate, monohydrochloride, hydrate] | 0.45 | 1.86 | –
c1ccc(Cc2cnc(OCCN3CCCC3)s2)cc1 [Example 76] | 2.9 | 3.5 | –
C(=C\c1ccc(OCCN2CCCC2)cc1)/c1ccccc1 [Example 46] | 1.35 | 1.5 | –
c1ccc(Cc2ccc(OCCN3CCCCC3)cc2)cc1 [Example 401] | 0.055 | – | –
